Assay results as given in US11266643B2, “Triaryl compounds for treatment of PD-L1 diseases” (CHEMOCENTRYX, INC., priority 2019, dated 2022).

These molecules were tested against human PD-L1 (Homo sapiens (Human), UniProt Q9NZQ7) (assay: Enzyme-Linked Immunosorbent Assay (ELISA), PD-1/PD-L1 binding). Conditions: PD-1/PD-L1 ELISA, human PD-L1 coated plates, Table 1.
Chain of human PD-L1 (Q9NZQ7 19-239): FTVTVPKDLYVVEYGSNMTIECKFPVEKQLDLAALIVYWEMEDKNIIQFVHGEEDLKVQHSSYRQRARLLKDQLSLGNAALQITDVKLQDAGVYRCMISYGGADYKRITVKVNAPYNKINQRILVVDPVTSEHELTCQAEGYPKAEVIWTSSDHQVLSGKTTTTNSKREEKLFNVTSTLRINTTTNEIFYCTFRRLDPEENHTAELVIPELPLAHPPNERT
Procedure, shortened: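 Plates coated with […] human PD-L1 overnight at 4° C, blocked, then 1:5 serial compound dilutions added with human PD-1 […] 0.31 μg/mL for 1 h at 37° C. Bound PD-1 detected with streptavidin-HRP and TMB (20 min, 37° C); absorbance read at 450 nm after H2SO4 stop.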
`COc1cc(-c2cccc(-c3cccc(NC(=O)c4ccc(C(=O)O)cn4)c3C)c2C)cc(F)c1CN` [Example 1.352] was tested, and the IC50 was 0.01 to 1 µM.
For `COc1cc(-c2cccc(-c3cccc(NC(=O)c4c[nH]c(=O)n(C)c4=O)c3C)c2C)cc(F)c1CNCCO` [Example 1.270], the IC50 was under 0.01 µM.
Molecule `COc1cc(-c2cccc(-c3cccc(NC(=O)C4CN(C)CCO4)c3C)c2C)cc(F)c1CN` (centres unmarked) [Example 1.315] has an IC50 of 0.01 to 1 µM.
Molecule `COc1cc(-c2cccc(-c3cccc(Nc4cccc5cccnc45)c3C)c2C)cc(F)c1CN1CC(C(=O)O)C1` [Example 1.256] has an IC50 of 0.01 to 1 µM.
`COc1cc(-c2cccc(-c3cccc(NC(=O)c4c[nH]c(=O)n(C)c4=O)c3C)c2C)cc(F)c1CN1CC2(C1)NC(=O)NC2=O` [Example 1.242] was tested, and the IC50 was 0.01 to 1 µM.
Work on `COc1cc(-c2cccc(-c3cccc(NC(=O)c4c(C)cc(C)n(C)c4=O)c3C)c2C)cc(F)c1CN1CC(C(=O)O)C1` [Example 1.275] yielded an IC50 of 0.01 to 1 µM.
Molecule `COc1cc(-c2cccc(-c3cccc(NC(=O)c4cccn(C)c4=O)c3C)c2C)cc(F)c1CNCCCC(=O)O` [Example 1.279] has an IC50 of under 0.01 µM.
`COc1cc(-c2cccc(-c3cccc(Nc4ccnc5nccnc45)c3C)c2C)cc(F)c1CN1CC(C(=O)O)C1` [Example 1.245] was tested, and the IC50 was under 0.01 µM.
Work on `COc1cc(-c2cccc(-c3cccc(Nc4nccc5nccnc45)c3C)c2C)cc(F)c1CNC1CCOC1` (centres unmarked) [Example 1.213] yielded an IC50 of under 0.01 µM.
With `COc1cc(-c2cccc(-c3cccc(NC(=O)c4c[nH]c(=O)n(C)c4=O)c3C)c2C)cc(F)c1CN(C)CCO` [Example 1.220] the IC50 was under 0.01 µM.
`COc1cc(-c2cccc(-c3cccc(Nc4nccc5nccnc45)c3C)c2C)cc(F)c1CNCCO` [Example 1.238] showed an IC50 of under 0.01 µM.
Work on `COc1cc(-c2cccc(-c3cccc(NC(=O)c4cncn(C)c4=O)c3C)c2C)cc(F)c1CNC1CCC1` [Example 1.202] yielded an IC50 of under 0.01 µM.
`COc1cc(-c2cccc(-c3cccc(Nc4nccc5ccccc45)c3C)c2C)cc(F)c1CN1CC(C(=O)O)C1` [Example 1.262] was tested, and the IC50 was 1 to 10 µM.
For `COc1cc(-c2cccc(-c3cccc(NC(=O)c4c[nH]c(=O)n(C)c4=O)c3C)c2C)cc(F)c1CN1CC(C(=O)O)C1` [Example 1.283], the IC50 was under 0.01 µM.
With `COc1cc(-c2cccc(-c3cccc(NC(=O)c4ccccn4)c3C)c2C)cc(F)c1CN1CC[C@H](C(=O)O)C1` [Example 1.368] the IC50 was 0.01 to 1 µM.
With `COc1cc(-c2cccc(-c3cccc(NC(=O)C4CCCO4)c3C)c2C)cc(F)c1CN1CC(C(=O)O)C1` (centres unmarked) [Example 1.341] the IC50 was 0.01 to 1 µM.
In the case of `COc1cc(-c2cccc(-c3cccc(NC(=O)c4cccc(N)n4)c3C)c2C)cc(F)c1CN` [Example 1.386], the IC50 is reported as 0.01 to 1 µM.
For `COc1cc(-c2cccc(-c3cccc(NC(=O)c4c[nH]c(=O)n(C)c4=O)c3C)c2C)cc(F)c1CN[C@@H]1CCC[C@@H]1O` [Example 1.218], the IC50 was under 0.01 µM.

Same assay, conditions: human PD-1/PD-L1 ELISA, plates coated with human PD-L1
`COc1cc(-c2cccc(-c3cccc(NC(=O)c4cccn(C)c4=O)c3C)c2C)cc(F)c1CNC[C@@H]1CCC(=O)N1C` [Example 1.156] was tested, and the IC50 was under 0.01 µM.
Work on `COc1cc(-c2cccc(-c3cccc(NC(=O)c4nn(C)c(=O)n(C)c4=O)c3C)c2C)cc(F)c1CNCCCC(N)=O` [Example 1.062] yielded an IC50 of under 0.01 µM.
Molecule `COc1cc(-c2cccc(-c3cccc(NC(=O)c4cn(C)c(=O)n(C)c4=O)c3C)c2C)cc(F)c1CN(C)[C@@H]1CNC(=O)C1` [Example 1.148] has an IC50 of under 0.01 µM.
`COc1cc(-c2cccc(-c3cccc(NC(=O)c4c[nH]c(=O)n(C)c4=O)c3C)c2C)cc(F)c1CN(C)[C@@H]1CNC(=O)C1` [Example 1.073] was tested, and the IC50 was 0.01 to 1 µM.
In the case of `COc1cc(-c2cccc(-c3cccc(NC(=O)c4cncn(C)c4=O)c3C)c2C)cc(F)c1CNC[C@@H]1CCC(=O)N1C` [Example 1.195], the IC50 is reported as under 0.01 µM.
In the case of `COc1cc(-c2cccc(-c3cccc(NC(=O)c4c[nH]c(=O)n(C)c4=O)c3C)c2C)cc(F)c1CN[C@@H]1COC[C@H]1O` [Example 1.078], the IC50 is reported as under 0.01 µM.
Work on `COc1cc(-c2cccc(-c3cccc(NC(=O)c4cn(C)c(=O)n(C)c4=O)c3C)c2C)cc(F)c1CNCc1cn(C)c(=O)n(C)c1=O` [Example 1.146] yielded an IC50 of under 0.01 µM.
`COc1cc(-c2cccc(-c3cccc(NC(=O)c4c[nH]c(=O)n(C)c4=O)c3C)c2C)cc(F)c1CN[C@H]1COC[C@@H]1O` [Example 1.079] showed an IC50 of under 0.01 µM.
With `COc1cc(-c2cccc(-c3cccc(NC(=O)c4cncn(C)c4=O)c3C)c2C)cc(F)c1CNC1COC1` [Example 1.197] the IC50 was under 0.01 µM.
`COc1cc(-c2cccc(-c3cccc(NC(=O)c4cn(C)c(=O)n(C)c4=O)c3C)c2C)cc(F)c1CNCC(C)(C)C(N)=O` [Example 1.080] was tested, and the IC50 was under 0.01 µM.
Work on `COc1cc(-c2cccc(-c3cccc(NC(=O)c4cn(C)c(=O)n(C)c4=O)c3C)c2C)cc(F)c1CN[C@H]1CCOC1` [Example 1.039] yielded an IC50 of under 0.01 µM.
In the case of `COc1cc(-c2cccc(-c3cccc(NC(=O)c4c[nH]c(=O)n(C)c4=O)c3C)c2C)cc(F)c1CNCC1CCCNC1=O` (centres unmarked) [Example 1.100], the IC50 is reported as under 0.01 µM.
With `COc1cc(-c2cccc(-c3cccc(NC(=O)c4cn(C)c(=O)n(C)c4=O)c3C)c2C)cc(F)c1CN[C@H]1CCOC[C@@H]1O` (racemic) [Example 1.013] the IC50 was under 0.01 µM.
`COc1cc(-c2cccc(-c3cccc(NC(=O)c4cccn(C)c4=O)c3C)c2C)cc(F)c1CN[C@@H]1CCC[C@@H]1O` [Example 1.165] showed an IC50 of under 0.01 µM.
In the case of `COc1cc(-c2cccc(-c3cccc(NC(=O)c4cn(C)c(=O)n(C)c4=O)c3C)c2C)cc(F)c1CN[C@@H]1CCC[C@H]1O` [Example 1.137], the IC50 is reported as under 0.01 µM.
Work on `COc1cc(-c2cccc(-c3cccc(NC(=O)c4cn(C)c(=O)n(C)c4=O)c3F)c2C)cc(F)c1CNC[C@@H]1CCC(=O)N1` [Example 1.037] yielded an IC50 of under 0.01 µM.
For `COc1cc(-c2cccc(-c3cccc(NC(=O)c4cn(C)c(=O)n(C)c4=O)c3C)c2Cl)cc(F)c1CN[C@@H]1CNC(=O)C1` [Example 1.035], the IC50 was under 0.01 µM.
In the case of `COc1cc(-c2cccc(-c3cccc(NC(=O)c4cncn(C)c4=O)c3C)c2C)cc(F)c1CN1CCNC(=O)C1` [Example 1.182], the IC50 is reported as 1 to 10 µM.
Molecule `COc1cc(-c2cccc(-c3cccc(NC(=O)c4nn(C)c(=O)n(C)c4=O)c3C)c2C)cc(F)c1CN[C@@H]1CCC(=O)NC1=O` [Example 1.058] has an IC50 of 0.01 to 1 µM.
`COc1cc(-c2cccc(-c3cccc(NC(=O)c4c[nH]c(=O)n(C)c4=O)c3C)c2C)cc(F)c1CN[C@@H]1CCNC1=O` [Example 1.138] was tested, and the IC50 was 0.01 to 1 µM.
`COc1cc(-c2cccc(-c3cccc(NC(=O)c4cccn(C)c4=O)c3C)c2C)cc(F)c1CNC(C)(C)CO` [Example 1.150] was tested, and the IC50 was under 0.01 µM.
In the case of `COc1cc(-c2cccc(-c3cccc(Nc4cncc5nccnc45)c3C)c2C)cc(F)c1CN[C@@H]1CNC(=O)C1` [Example 1.043], the IC50 is reported as under 0.01 µM.
`COc1cc(-c2cccc(-c3cccc(NC(=O)c4nn(C)c(=O)n(C)c4=O)c3C)c2C)cc(F)c1CNCCN1CCCC1=O` [Example 1.092] was tested, and the IC50 was under 0.01 µM.

Same assay, conditions: plate-coated human PD-L1, biotinylated Human PD-1, absorbance at 450 nm
`COc1cc(-c2cccc(-c3cccc(NC(=O)c4c[nH]c(=O)n(C)c4=O)c3Cl)c2Cl)cc(F)c1CN[C@H]1CCOC[C@H]1OC` [Example 2.022] showed an IC50 of under 0.01 µM.
For `COc1cc(-c2cccc(-c3cccc(NC(=O)c4cn(C)c(=O)n(C)c4=O)c3C)c2Cl)cc(F)c1CN[C@H]1CCOC[C@H]1O` [Example 2.104], the IC50 was under 0.01 µM.
`COc1cc(-c2cccc(-c3cccc(Nc4nccc5nccnc45)c3C)c2Cl)cc(F)c1CN[C@H]1CCC(=O)NC1` [Example 2.116] was tested, and the IC50 was under 0.01 µM.
`COc1cc(-c2cccc(-c3cccc(NC(=O)c4cncn(C)c4=O)c3C)c2Cl)cc(F)c1CN[C@H]1CCC(=O)NC1` [Example 2.041] was tested, and the IC50 was under 0.01 µM.
`COc1cc(-c2cccc(-c3cccc(NC(=O)c4cn(C)c(=O)n(C)c4=O)c3Cl)c2Cl)cc(F)c1CN1CCC[C@@H](C(=O)O)C1` [Example 2.003] was tested, and the IC50 was under 0.01 µM.
For `COc1cc(-c2cccc(-c3cccc(NC(=O)c4cn(C)c(=O)n(C)c4=O)c3C)c2Cl)cc(F)c1CN1CC[C@@H](O)C1` [Example 2.016], the IC50 was under 0.01 µM.
`COc1cc(-c2cccc(-c3cccc(NC(=O)c4cn(C)c(=O)n(C)c4=O)c3Cl)c2Cl)cc(F)c1CN[C@@H]1COC[C@H]1O` [Example 2.075] gave an IC50 of under 0.01 µM.
With `COc1cc(-c2cccc(-c3cccc(NC(=O)c4cn(C)c(=O)n(C)c4=O)c3C)c2Cl)cc(F)c1CN[C@H]1CCOC[C@H]1OC` [Example 2.024] the IC50 was under 0.01 µM.
`COc1cc(-c2cccc(-c3cccc(NC(=O)c4cn(C)c(=O)n(C)c4=O)c3C)c2C)cc(F)c1CN[C@H]1CCOC[C@@H]1O` [Example 2.096] gave an IC50 of under 0.01 µM.
`COc1cc(-c2cccc(-c3cccc(NC(=O)c4cn(C)c(=O)n(C)c4=O)c3C)c2Cl)cc(F)c1CN1CCC[C@@H](C(=O)O)C1` [Example 2.015] gave an IC50 of under 0.01 µM.
For `COc1cc(-c2cccc(-c3cccc(NC(=O)c4c[nH]c(=O)n(C)c4=O)c3C)c2Cl)cc(F)c1CN[C@H]1CCOC[C@H]1OC` [Example 2.023], the IC50 was under 0.01 µM.
For `COc1cc(-c2cccc(-c3cccc(NC(=O)c4cn(C)c(=O)n(C)c4=O)c3C)c2Cl)cc(F)c1CN[C@@H]1CCC[C@H]1O` [Example 2.052], the IC50 was under 0.01 µM.
`COc1cc(-c2cccc(-c3cccc(NC(=O)c4c[nH]c(=O)n(C)c4=O)c3C)c2Cl)cc(F)c1CN[C@H]1CCOC[C@H]1O` [Example 2.034] was tested, and the IC50 was under 0.01 µM.
`COc1cc(-c2cccc(-c3cccc(NC(=O)c4cn(C)c(=O)n(C)c4=O)c3Cl)c2Cl)cc(F)c1CN[C@@H]1CCOC1` [Example 2.065] gave an IC50 of under 0.01 µM.
`COc1cc(-c2cccc(-c3cccc(NC(=O)c4cn(C)c(=O)n(C)c4=O)c3C)c2Cl)cc(F)c1CNCC1(C(N)=O)CC1` [Example 2.059] was tested, and the IC50 was under 0.01 µM.
Work on `COc1cc(-c2cccc(-c3cccc(NC(=O)c4cn(C)c(=O)n(C)c4=O)c3C)c2Cl)cc(F)c1CN[C@@H]1CCC(=O)NC1` [Example 2.101] yielded an IC50 of under 0.01 µM.
`COc1cc(-c2cccc(-c3cccc(NC(=O)c4cn(C)c(=O)n(C)c4=O)c3C)c2Cl)cc(F)c1CN[C@@H]1CCCOC1` [Example 2.067] was tested, and the IC50 was under 0.01 µM.
Work on `COc1cc(-c2cccc(-c3cccc(NC(=O)c4cn(C)c(=O)n(C)c4=O)c3C)c2Cl)cc(F)c1CN1CCC(C)(O)CC1` [Example 2.018] yielded an IC50 of under 0.01 µM.
